Source: US8097588B2, “Trophinin-binding peptides and uses thereof” (Sanford-Burnham Medical Research Institute, priority 2007, dated 2012)

What was measured:
HT-H cells [1] = test: Activation of HT-H cells, monomeric versus branched peptide; assay type: cell-based, human
HT-H cells [2] = test: Western blot for tyrosine phosphorylated proteins, HT-H cells; assay type: cell-based, human; details: serum-depleted medium, 30 min
Protocol: (§1) Tyrosine phosphorylated proteins were detected by anti-phosphotyrosine antibody (4G10, mouse IgG). HT-H cells and A431 cells were grown in 10 cm plates to semi confluency, incubated in phosphorylation medium with GWRQ peptide (GWRQ-MAP; 2 μg/ml) at 4° C. for 15 min, and stimulated for phosphorylation at 37° C. for 0 min 120 min. Control HT-H cells were treated in the same manner without GWRQ peptide. HT-H cells were harvested using rubber policemen, collected by centrifugation, and washed once with cold PBS. Cells were lysed with 0.5% NP-40 in PBS containing phosphatase inhibitors (30 mM NaF, 40 mM β-glycerophosphate, 20 mM Na pyrophosphate, and 1 mM Na2VO4) and protease inhibitors (2 mM EGTA, 5 mM EDTA, 1 mM phenylmethylsulfonylfluoride, 3 mM benzamidine, 5 μM pepstatin A, 10 μM leupeptin). Western blot was carried out as described above.
(§2) Screening of phosphorylated proteins by phospho specific antibodies was carried out by Kinexus, Vancouver, B. C., Canada. HT-H cells and A431 cells grown as monolayers were serum starved by culturing in medium lacking FCS for 2 days. Cells were incubated in phosphorylation medium without FCS and then stimulated at 37° C. for 0 min˜120 min in medium containing recombinant human EGF (20 ng/ml) with or without GWRQ peptide.

ErbB4 [3] = test: Tyrosine kinase activity assay of anti-ErbB4 immunoprecipitates, HT-H cells; assay type: cell-based, human; details: GWRQ peptide 5 μg/ml, EGF 20 ng/ml
Protocol: (§3) A431 cells and HT-H cells were cultured in 10 cm plate to sub-confluency.
(§4) Medium was replaced with DME without FCS, and cells were cultured for 3 days without FCS by exchanging medium every day. To HT-H or A431 monolayer kept at 4° C., Na3VO4 was added to 1 mM. GWRQ peptide (5 μg/ml) and/or recombinant human EGF (20 ng/ml) was added to each plate, and left at 4° C. for 30 min. Cells were harvested by rubber policeman, and washed with cold PBS. Cells were lysed in PBS containing 1% NP-40, and cell lysate was subjected to immunoprecipitation with 20 & I protein A beads pre-coated with control IgG or with rabbit anti-ErbB4 antibody (Sant Cruz Biotechnology). Immunoprecipitates were washed with cold PBS and suspended in cold PBS. A polyvinylchloride ELISA plate (Falcon) was coated with tyrosine kinase substrate poly EY (Sigma) in PBS (1 μg/100 μl) at 4° C. for 20 hours. After washing the plate, each immunoprecipitate as triplicate was added to each well in 100 & I kinase assay buffer (50 mM Hepes buffer, pH 7.4, 20 mM MgCl2, 1 mM MnCl2 2 mM Na3VO4, and 0.4 mM ATP), and reacted at room temperature for 30 min. […] After washing wells with TBS, peroxidase substrate ABTS (Pierce) was added and developed color was read in an ELISA reader at 405 mm.

A431 cells = test: Western blot for tyrosine phosphorylated proteins, A431 cells; assay type: cell-based; details: serum-depleted medium, 30 min
Protocol: as §1, §2

ErbB4 [4] = test: Tyrosine kinase activity assay of anti-ErbB4 immunoprecipitates, A431 cells; assay type: cell-based; details: GWRQ peptide 5 μg/ml, EGF 20 ng/ml
Protocol: as §3, §4

Substance | concentration needed to activate HT-H cells (HT-H cells [1]) [µg/mL] | efficiency relative to octameric branched GWRQ peptide (GWRQ-MAP) (HT-H cells [1]; less efficiency) | EGFR / tyrosine phosphorylation in HT-H cells (HT-H cells [2]) | ErbB4 kinase activity in HT-H cells (ErbB4 [3]) | EGFR / tyrosine phosphorylation in A431 cells (A431 cells) | ErbB4 kinase activity in A431 cells (ErbB4 [4])
monomeric GWRQ peptide: a single linear GWRQ peptide | 200 to 500 | about 100 times |  |  |  | 
EGF: recombinant human EGF (NSDSECPLSHDGYCLHDGVCMYIEALDKYACNCVVGYIGERCQYRDLKWWELR) |  |  | no detectable EGFR phosphorylation | activated | caused EGFR phosphorylation | activated
